The record followed here is patent US20250382631A1, “PROTAC-CID SYSTEMS FOR USE IN MULTIPLEX GENE REGULATION” (William Marsh Rice University, priority 2022, published 2025).

Assay [1] relates to EYFP and BFP expression in HEK293T cells. The assay is described as follows: Dual PROTAC-based inducible gene cassettes (EYFP and BFP), microscopy. Type of assay: cell-based, human. Conditions: MZ1 (100 nM) and dTAG-13 (100 nM) PROTAC-CID systems, FIG. 16A. The procedure:
Transfection and microscopy. HEK293T cells (American Type Culture Collection, no. CRL-3216) were cultured with high-glucose Dulbecco's modified Eagle's medium (DMEM) (Thermo Fisher Scientific no. 10569044) with 10% fetal bovine serum (FBS) (Thermo Fisher Scientific no. 10437028) and 1×penicillin-streptomycin (Thermo Fisher Scientific no. 15140122) at 37° C. with 5% CO2. Except for the data in FIGS. 3C, 3E, and 3H, cells were plated into 96 well plate (Corning no. 3598) and transfected by Polyethyleneimine Max (PEI Max) (Polysciences no. 24765-1). 1.5 μL PEI Max (1 mg/mL, pH=7.1) and 100 μl DMEM were mixed with plasmids to be slowly dropped into the cell medium after 30 mins of incubation. Medium was changed 12 hours post-transfection. The inductive small molecules, including Rapamycin (STEM CELL technologies no. 73362), dTAG-13 (TOCRIS no. 6605/5), dTAG^V-1 (TOCRIS no. 6744-5), dBRD9 (TOCRIS no. 6606/5), dTRIM24 (TOCRIS no. 6607/5), MZ1 (TOCRIS no. 6154/5), AT1 (TOCRIS no. 6356/5), TL13-12 (TOCRIS no. 6744/5), TL13-112 (TOCRIS no. 6745/5), dTAG-7 (TOCRIS no. 69125), ZXH3-26 (TOCRIS no. 6713/5) and ABA (GoldBio no. A-050-100), dissolved in Dimethyl sulfoxide (DMSO) (Sigma, no. D8418) were added. For the microscopy observation, the images were taken by Microscopy EVOS (Life Technologies) and processed by ImageJ (Schneider et al., 2012). If not otherwise noted, 60 ng of each plasmid were used for each sample.
The inventors next tested the feasibility of dual PROTAC-based inducible gene cassettes (FIG. 15). In the first cassette, GAL4 was fused with FKBP12^F36V, and VHL was ligated with VPR to drive EYFP expression in response to dTAG^V-1. In the second cassette, TetR was fused with BRD9BD, and CRBN was connected with VPR to drive blue fluorescence protein (BFP) expression in the presence of dBRD9. […] As biological computation relies on the protein or DNA to execute Boolean logic gate operation in living organisms for cell discrimination and disease diagnosis (3, 11, 42), the inventors next explored the possibility of PROTAC-CID enabled logic gate biological computation. By placing EYFP under control of the TRE (Tetracycline response element) and pUAS-1 promoter, the inventors observed strong EYFP expression by using one or two PROTACs, achieving clear logic OR gate responses (FIGS. 2C and 16B). To develop a more sophisticated logic AND gate, the inventors took advantage of two orthogonal site-specific DNA recombinases (Cre and Dre) for biological computation (43). […] In this gene circuit, only in the presence of both dTAG-13 and dBRD9 inducers, Dre and Cre can be expressed to remove their respective “STOP” signals, resulting in the eventual GFP expression as a clear logic AND readout (FIGS. 2D and 16C).

Assay [2] concerns pUAS-2-Fluc expression in HEK293T cells with cognate or non-cognate GAL4/VPR protein pairs. The assay is described as follows: Orthogonality analysis, Firefly luciferase (Fluc) luminescence. Type of assay: cell-based, human. Particulars: seven different protein pairs, 2 days, FIGS. 2A and 14. The procedure:
Luciferase luminescence intensity measurement. Before transfection, HEK293T cells were seeded in clear bottom 96 well assay plates (Corning no. 3610) with 100 μL DMEM with 10% FBS and 1× penicillin-streptomycin at 37° C. with 5% CO2. When cells reached 50% confluency, 1.5 μL PEI Max (1 mg/mL, pH=7.1) and 100 μL DMEM were mixed with 60 ng of each plasmid (GAL4 and VPR fused target protein or E3 ubiquitin ligase, pUAS-2-Fluc) for 30 min at room temperature. Mixture was transferred into cells gently. 12 h after transfection, medium was changed, and the inductive small molecules were supplied. 2-days post induction, 120 μL of medium was aspirated from each well containing 200 μL of medium, leaving 80 μL of medium per well, then treated with 40 μL of lysis buffer (500 mM DTT (Sigma no. D0632), 10 mM coenzyme A (RPI no. C95275), 100 mM ATP (Thermo Fisher Scientific no. R1441), 80 mg/mL D-luciferin (GoldBio no. LUCNA-100), Triton lysis buffer (0.1082 M Tris-HCl, 0.0419 M Tris-Base, 75 mM NaCl, 3 mM MgCl2)). Plate was shaken with 20 seconds in “Orbital” mode with frequency of 432 rpm and Amplitude of 1 mm to lysis the cells. Recording the luminescence by plate reader Infinite M200 (TECAN) with 1000 ms integration time using Megellan v1.7 (TECAN). Mean of luciferase luminescence relative light units (RLU) was calculated by the average of three biological replications. Normalized RLU were calculated by dividing RLU of the tested group with mean of RLU of DMSO treated control group for normalization: […]

The structures appear in SMILES notation.

Regarding `Cc1ncsc1-c1ccc(CNC(=O)[C@@H]2C[C@@H](O)CN2C(=O)[C@@H](NC(=O)COCCOCCOCCNC(=O)C[C@@H]2N=C(c3ccc(Cl)cc3)c3c(sc(C)c3C)-n3c(C)nnc32)C(C)(C)C)cc1` [MZ1], the “gene activation from dual inducible cassettes” value in assay [1] was “single gene activation with one PROTAC small molecule and dual-gene activation using both PROTACs”. The “orthogonality: Fluc activation with cognate vs non-cognate protein partners” value in assay [2] is on record as “interact with the same protein pairs”.

As to `CC[C@H](C(=O)N1CCCC[C@H]1C(=O)O[C@H](CCc1ccc(OC)c(OC)c1)c1ccccc1OCC(=O)NCCCCCCOc1cccc2c1C(=O)N(C1CCC(=O)NC1=O)C2=O)c1cc(OC)c(OC)c(OC)c1` (stereo partly shown) [dTAG-13], the “gene activation from dual inducible cassettes” value in assay [1] is “single gene activation with one PROTAC small molecule and dual-gene activation using both PROTACs”. In addition, in assay [2], the “orthogonality: Fluc activation with cognate vs non-cognate protein partners” value is “only activated Fluc expression in the cells transfected with plasmids containing GAL4-FKBP12^F36V (SEQ ID NO: 1) and CRBN-VPR (SEQ ID NO: 2) coding regions”.
